Data from patent US6630174B2, “Methods and compositions for retarding and eradicating infestation in trees and tree derived products” (Nisus Corporation, priority 1990, dated 2003).

Key:
[1] = test system: broad spectrum of infestation; assay: Boron concentration effective against infestation; assay type: in vivo; details: concentration in the wood
dry wood termites = details: in vivo; cited from earlier work

| SMILES | concentration generally effective for preventing or eradicating a broad spectrum of infestation [1] | boron concentration efficacious against dry wood termites (dry wood termites) |
| --- | --- | --- |
| O.O.O.O.O=BOB1OB(OB=O)OB2OB([O-])OB([O-])OB(O1)O2.[Na+].[Na+] [DOT, disodium octaborate tetrahydrate] | 2400 ppm | – |
| [B] [boron] | 500 ppm | 100 parts per million |
